{"source": "patent US20220347125A1", "about": "“ANTITUMOR AGENT AND COMPOUNDING AGENT” (Keio University, priority 2019, published 2022)", "key": {"[1]": {"system": "SSZ-resistant tumor cells (HCT116 and HSC-4)", "assay": "Intracellular GSH levels, GSH-Glo Glutathione Assay (Experimental Example 12)", "format": "cell-based", "details": "BSO or OXY alone, or SSZ with OXY, after 48 hours", "experimental": "SSZ-resistant tumor cells (HCT116 and HSC-4) were used and the cells were treated in a similar manner to that in Example 11, and the intracellular GSH levels were measured after 48 hours using a GSH-Glo Glutathione Assay Kit (Promega)."}, "[2]": {"system": "sulfasalazine-resistant tumor cells (HCT116 and HSC-4)", "assay": "Intracellular HNE accumulation, SSZ or BSO with OXY (Experimental Example 13)", "format": "cell-based", "details": "SSZ, BSO or OXY alone, or SSZ or BSO in combination with OXY", "experimental": "(§1) As in Experimental Example 1, HSC-4 cells were cultured in a medium containing 50 μM dyclonine or an equal volume of DMSO and 0 μM (not added) or 400 μM sulfasalazine, and the treated cells were fixed with 4% PFA-PBS. Then, the cells were permeabilized with 0.2% Triton X100-PBS, followed by blocking with 3% BSA-PBS. Subsequently, fluorescent staining was performed using an anti-HNE antibody as the primary antibody and AlexaFluor 488-conjugated anti-mouse IgG antibody as the secondary antibody. As a positive control, cells incubated with 50 μM HNE for 30 min were used and stained using antibodies in a similar manner.\nIn this experimental example, sulfasalazine-resistant tumor cells (HCT116 and HSC-4) were used, and the cells were treated as in Experimental Example 6 and then observed under a fluorescence microscope."}, "A549, HCT116 and HSC4": {"system": "A549, HCT116 and HSC4", "assay": "Cell viability, oxyfedrine with SSZ or BSO, statements for all three lines (Experimental Example 11)", "details": "48 hours; for effect on cell survival rate: 400 μM sulfasalazine alone or 100 μM L-buthionine sulfoximine alone", "experimental": "Alveolar basal epithelial adenocarcinoma cell line A549, colon adenocarcinoma cell line HCT116, and oral squamous carcinoma cell line HSC-4, all of which are resistant to sulfasalazine or L-buthionine-sulfoximine, were seeded in 96-well plates at 4000 cells/well, and the culture was started. RPMI was used for the A549 and DMEM was used for the HCT116 and HSC-4 as culture media. After 24 hours, each medium was replaced with a medium containing 50 or 100 μM oxyfedrine or an equal volume of DMSO, and 0 (no sulfasalazine and no L-buthionine sulfoximine) or 400 μM sulfasalazine or 100 μM L-buthionine sulfoximine, and the culture was continued for 48 hours. Then, the cells were assayed for cell viability using CellTiter-Glo (Promega), and a cell survival rate in each case was calculated taking the number of live cells in the control (DMSO added, and sulfasalazine and L-buthionine sulfoximine not added) as 100%."}, "ALDH": {"system": "ALDH", "assay": "ALDH activity, ALDEFLUOR Kit with FACS in HSC-4 cells (Experimental Example 5)", "format": "cell-based", "details": "50 μM dyclonine 24 hours, or DEAB, DMSO-treated cells approximately 25%", "experimental": "HSC-4 cells, a sulfasalazine-resistant oral squamous carcinoma cell line, were seeded at 8×10^5 cells/dish in 10-cm cell culture dishes, and culture was started. DMEM was used as the culture medium. After 24 hours, the medium was replaced with a medium containing 50 μM dyclonine (solvent: DMSO), and the cells were cultured for another 24 hours. The cells were then collected, stained with the ALDEFLUOR Kit (STEMCELL Technologies) for ALDH activity in the presence of N,N-diethylaminobenzaldehyde (DEAB), and analyzed by FACS (“Dyclonine” in the figure). As a control, experimental results are shown for cells cultured in the absence of DEAB which were not stained with the ALDEFLUOR Kit (“Unstained” in the figure), and cells that were stained with the ALDEFLUOR Kit after replacing the medium with an equal volume of medium with DMSO and without dyclonine (“Non-treatment” in the figure). For the positive cell counts, a gate was set to gate out positive cells to almost 0% in the DMSO-treated sample stained with the ALDEFLUOR Kit in the presence of DEAB (“DEAB” in the figure), and the positive rate in each case was calculated."}, "A549 cells [3]": {"system": "A549 cells", "assay": "Cell viability, Nrf2 siRNA or ML385 with OXY and SSZ or BSO (Experimental Example 18)", "format": "cell-based", "details": "in addition to 400 μM SSZ and 50 μM OXY, 48 hours", "experimental": "A549 cells were transfected with siRNA against the Nrf2 gene as in Example 17, or the medium was supplemented with ML385 that is an Nrf2 inhibitor. Cells were cultured for 48 hours in a medium containing 50 μM OXY, and 400 μM SSZ or 100 μM BSO, as in Example 11. Then, the cells were assayed for cell viability. As a control, the experiments were performed in a medium without any of the above. DMSO, however, was added appropriately to add a constant volume of DMSO in all cases."}, "HSC-4 cells [4]": {"system": "HSC-4 cells", "assay": "Dyclonine sensitivity after xCT knockdown, cell viability (Experimental Example 2)", "format": "cell-based", "details": "48 hours", "experimental": "HSC-4 cells, a sulfasalazine-resistant oral squamous carcinoma cell line, were seeded in a 96-well plate at 3000 cells/well, and nonsilencing control (scrambled (Sense: UUCUCCGAACGUGUCACGUtt (SEQ ID NO. 1), Antisense: ACGUGACACGUUCGGAGAAtt (SEQ ID NO. 2))) and siRNA or xCT specific siRNA (xCT siRNA #1 Sense: AGAAAUCUGGAGGUCAUUAtt (SEQ ID NO. 3), Antisense: […] (SEQ ID NO. 4), xCT siRNA #2 Sense: CCAGAACAUUACAAAUAAUtt (SEQ ID NO. 5), Antisense: AUUAUUUGUAAUGUUCUGGtt (SEQ ID NO. 6)) were lipofected using Lipofectamine RNAiMAX (Thermo Fisher Scientific), and culture was started. DMEM was used as the culture medium. After 24 hours, the medium was replaced with a medium containing 50 μM dyclonine (solvent: DMSO) or an equal volume of DMSO, and the culture was continued for 48 hours."}, "[5]": {"system": "HSC-4, a sulfasalazine-resistant oral squamous carcinoma cell line", "assay": "Cell viability (CellTiter-Glo), sulfasalazine and dyclonine (Experimental Example 1)", "format": "cell-based", "details": "48 hours", "experimental": "HSC-4, a sulfasalazine-resistant oral squamous carcinoma cell line, was seeded in a 96-well plate at 2000 cells/well, and culture was started. DMEM was used as the culture medium. After 24 hours, the medium was replaced with a medium containing 50 μM dyclonine or an equal volume of DMSO, as well as 0 (not added), 50, 100, 200, or 400 μM sulfasalazine, and the culture was continued for 48 hours."}, "HSC-4 cells [6]": {"system": "HSC-4 cells", "assay": "Intracellular HNE accumulation, anti-HNE fluorescent staining (Experimental Example 6)", "format": "cell-based", "details": "50 μM dyclonine and/or 400 μM sulfasalazine", "experimental": "as §1"}, "[7]": {"system": "SSZ-resistant tumor cells (HCT116 and HSC-4)", "assay": "Cell survival rate after ionizing radiation in the presence of OXY (Experimental Example 16)", "format": "cell-based", "details": "irradiated at 4, 6 or 10 Gy in the presence of 50 μM OXY, after 24 hours; versus irradiation or OXY alone", "experimental": "(§2) In this experimental example, SSZ-resistant tumor cells (HCT116 and HSC-4) were irradiated with ionizing radiation at a dose of 4, 6, or 10 Gy using an X-ray irradiation system (Hitachi MBR-1520R-4, settings: 150 kV, 20 mA) in the presence of 50 μM oxyfedrine (OXY). In parallel, samples without OXY and ionizing radiation (0 Gy) were processed as a control. After 24 hours, cell survival rate was calculated as in Experimental Example 1. In addition, intracellular HNE was visualized as in Experimental Example 6."}, "[8]": {"system": "sulfasalazine-resistant, oral squamous carcinoma cell line HSC-2", "assay": "In vivo tumor weight, X-irradiation and oxyfedrine (Experimental Example 19)", "set-up": "species or system nude mice", "details": "oxyfedrine 20-30 mg/kg intraperitoneally Days 1-7, versus non-treated group", "experimental": "The mice were injected intraperitoneally with oxyfedrine (OXY) (20 mg/kg) for 3 consecutive days (Days 1-3) immediately after transplantation. On Day4, oxyfedrine (30 mg/kg) was intraperitoneally administered, and X-rays (4, 6, or 10 Gy) were irradiated to the nude mice 2 hours later. Then, after intraperitoneal administration of oxyfedrine (20 mg/kg) for 3 days (Days 5-7), tumors were collected on Day 7 and weighed. The results are shown in a bar graph in FIG. 21. The groups of nude mice on which transplantation was performed in the same way, to which oxyfedrine was administered in the same way without X-irradiation, and to which no oxyfedrine was administered with X-irradiation in the same way, were used as controls. For statistical treatment, Student's 1-test was performed between the oxyfedrine and non-treated groups for each X-ray dose, and p value of less than 0.05 was considered significant."}, "[9]": {"system": "SSZ-resistant tumor cells (HCT116 and HSC-4)", "assay": "Intracellular HNE after ionizing radiation in the presence of OXY (Experimental Example 16)", "format": "cell-based", "details": "irradiation and 50 μM OXY treatment in combination", "experimental": "as §2"}, "A549 cells [10]": {"system": "A549 cells", "assay": "Western blotting after Nrf2 siRNA lipofection (Experimental Example 17)", "format": "cell-based", "details": "48 hours after lipofection", "experimental": "Nrf2, xCT, and β-actin expressions were detected in the extracts of SSZ-resistant tumor cells (HCT116, HSC-4, and A549) via Western blotting with primary antibodies against Nrf2, xCT, and β-actin and HRP-conjugated secondary antibody. Chemiluminescence Reagent Plus (Perkin-Elmer Japan) was used for detection.\nNext, siRNA against the Nrf2 gene was lipofected into A549 cells to suppress the Nrf2 gene expression. The extracts of the lipofected A549 cells were prepared after 48 hours and the expressions of Nrf2, xCT, ALDH3A1, and β-actin were examined via Western blotting in the same way as above. The following sequences (bases shown in lower case are DNA overhangs) were used as siRNA."}}, "note": "d = 2'-deoxy (DNA); r = 2'-OH (RNA)", "data": [{"molecule": "CCCCS(=N)(=O)CC[C@H](N)C(=O)O", "note": "(stereo partly drawn) [BSO, L-buthionine-sulfoximine]", "values": [{"measurement": "intracellular GSH levels", "setting": "[1]", "result": "reduced"}, {"measurement": "intracellular HNE levels and frequency", "setting": "[2]", "result": "increased intracellular HNE levels were observed at a low frequency"}, {"measurement": "effect on cell survival rate", "setting": "A549, HCT116 and HSC4", "result": "little effect"}]}, {"molecule": "CCN(CC)c1ccc(C=O)cc1", "note": "[DEAB, N,N-diethylaminobenzaldehyde]", "values": [{"measurement": "cell population with high ALDH activity", "setting": "ALDH", "result": "approximately 1%"}]}, {"molecule": "Cc1ccccc1C(=O)N1CCc2cc(-c3nc(NC(=O)Cc4ccc5c(c4)OCO5)sc3C)ccc21", "note": "[ML385]", "values": [{"measurement": "cell survival rate", "setting": "A549 cells [3]", "result": "effectively reduced"}]}, {"molecule": "CCCCOc1ccc(C(=O)CCN2CCCCC2)cc1", "note": "[dyclonine]", "values": [{"measurement": "HSC-4 cell survival rate", "setting": "HSC-4 cells [4]; 50 μM dyclonine alone (nonsilencing control)", "result": "approximately 60%"}, {"measurement": "HSC-4 cell survival rate", "setting": "HSC-4 cells [4]; xCT knockdown (xCT siRNA) in the presence of 50 μM dyclonine", "result": "10-20%"}, {"measurement": "cell survival", "setting": "[5]; 50 μM dyclonine alone, no sulfasalazine added, control (DMSO) = 100%", "result": 80, "unit": "%"}, {"measurement": "cell population with high ALDH activity", "setting": "ALDH", "result": "approximately 1%"}, {"measurement": "intracellular HNE level and frequency", "setting": "HSC-4 cells [6]", "result": "an increase in intracellular HNE level was observed at a low frequency"}]}, {"molecule": "O=C(O)c1cc(/N=N/c2ccc(S(=O)(=O)Nc3ccccn3)cc2)ccc1O", "note": "[sulfasalazine]", "values": [{"measurement": "effect on cell survival", "setting": "[5]; sulfasalazine alone, 50-400 μM", "result": "almost no effect"}, {"measurement": "intracellular GSH levels", "setting": "[1]", "result": "reduced"}, {"measurement": "intracellular HNE levels and frequency", "setting": "[2]", "result": "increased intracellular HNE levels were observed at a low frequency"}, {"measurement": "intracellular HNE level and frequency", "setting": "HSC-4 cells [6]", "result": "an increase in intracellular HNE level was observed at a low frequency"}, {"measurement": "effect on cell survival rate", "setting": "A549, HCT116 and HSC4", "result": "little effect"}]}, {"molecule": "oxyfedrine", "values": [{"measurement": "intracellular GSH levels", "setting": "[1]", "result": "did not reduce the intracellular GSH levels"}, {"measurement": "intracellular HNE levels and frequency", "setting": "[2]", "result": "increased intracellular HNE levels were observed at a low frequency"}, {"measurement": "cell survival rate", "setting": "[7]", "result": "significantly and markedly reduced"}, {"measurement": "tumor weight gain", "setting": "[8]; 4 Gy X-irradiation", "result": "tended to be suppressed"}, {"measurement": "tumor weight gain", "setting": "[8]; 6 Gy X-irradiation", "result": "significantly suppressed"}, {"measurement": "tumor weight gain", "setting": "[8]; 10 Gy X-irradiation", "result": "significantly suppressed"}, {"measurement": "tumor weight gain", "setting": "[8]; without X-irradiation", "result": "tended to be suppressed"}, {"measurement": "intracellular HNE-accumulating cells", "setting": "[9]", "result": "high levels of intracellular HNE-accumulating cells were observed at a high frequency"}, {"measurement": "cytotoxic effect", "setting": "A549, HCT116 and HSC4; 50 μM oxyfedrine alone, without sulfasalazine", "result": "no significant cytotoxic effect"}]}, {"molecule": "siRNA against the Nrf2 gene: siRNA against the Nrf2 gene, SEQ ID NO. 9 and 10 (chain 1 UCCUACUGUGAUGUGAAAUTT; chain 2 AUUUCACAUCACAGUAGGAGC; sugars from the 5' end r19 d2, backbone not given here)", "values": [{"measurement": "expressions of xCT and ALDH3A1", "setting": "A549 cells [10]", "result": "suppressed"}, {"measurement": "cell survival rate", "setting": "A549 cells [3]", "result": "effectively reduced"}]}]}
